Source: US20020128317A1, “Treatment of pathological conditions characterized by an increased IL-1 level” (Laboratories NEGMA, priority 2001, published 2002)

Legend:
phospholipase pathway = assay: Inhibitory effect on phospholipase pathway; type: biochemical
Excerpt: (§1) This unique mechanism of action of diacerein was thought to explain, at least in part, its efficacy in the symptomatic treatment of osteoarthritis.

[1] = Stability in aqueous solution; type: physicochemical
Experimental: (§2) Preferably the diacerein or rhein is administered orally in the conventional solid unit dosage form.

lipooxygenase pathway = assay: Inhibitory effect on lipooxygenase pathway; type: biochemical
Excerpt: as §1

cyclooxygenase pathway = assay: Inhibitory effect on cyclooxygenase pathway; type: biochemical
Excerpt: as §1

IL-1 [2] = assay: IL-1 inhibition, several studies in vitro and with animal models of osteoarthritis
Excerpt: as §1

Solubility = type: physicochemical
Experimental: as §2

[3] = Gastric safety during osteoarthritis treatment; type: in vivo
Excerpt: as §1

[4] = system: prostaglandin biosynthesis; assay: Inhibition of prostaglandin biosynthesis; type: biochemical
Excerpt: as §1

cartilage degradation = assay: Effect on cartilage degradation in osteoarthritis treatment; type: in vivo; conditions: prescribed treatment protocol
IL-1 [5] = assay: Effect of administration on IL-1 levels in subjects; type: in vivo; conditions: subjects with abnormally elevated IL-1 and TNF-α levels
TNF-α = assay: Effect of administration on TNF-α levels in subjects; type: in vivo; conditions: subjects with abnormally elevated IL-1 and TNF-α levels

Substance: diacerein
- inhibitory effect on the phospholipase pathway (phospholipase pathway): no inhibitory effect was detected
- stability in water [1]: may not be sufficiently stable
- inhibitory effect on the lipooxygenase pathway (lipooxygenase pathway): no inhibitory effect was detected
- inhibitory effect on the cyclooxygenase pathway (cyclooxygenase pathway): no inhibitory effect was detected
- IL-1 inhibition (IL-1 [2]): is an IL-1 inhibitor
- solubility in alcohol (Solubility; alcohol): virtually insoluble
- solubility in water (Solubility; water): virtually insoluble
- gastric safety profile [3]: excellent gastric safety profile
- inhibition of prostaglandin biosynthesis [4]: neither diacerein nor rhein inhibit
- effect on cartilage degradation (cartilage degradation): significant effect on cartilage degradation
- effect on IL-1 levels (IL-1 [5]): inhibitory effect
- effect on TNF-α levels (TNF-α): inhibitory effect
